In patent US8802597B2, “Herbicidal pyrimidines” (E I du Pont de Nemours and Company, priority 2003, dated 2014):
Read-outs that look alike come from different tables or passages of the source.

What was measured:
Test in all cases: Test C pre/postemergence
Type in all cases: in vivo
corn (Zea mays) = settings: Zea mays, pre-emergence, Preemergence, 125 g ai/ha; scale 0 to 100; read-out: Plant response rating, Corn
In short: (§1)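 Injury scored visually 12–14 days after application on 0–100 scale (100 = complete control), relative to controls. Compounds, formulated with surfactant in non-phytotoxic solvent, applied to soil at planting (pre) or to 1- to 4-leaf plants 2–18 cm tall (post) in greenhouse.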

[1] = tested on: cocklebur (Xanthium strumarium); settings: Xanthium strumarium; for pest or weed control at 16 g/ha: 16 g ai/ha; for pest or weed control at 31 g/ha: 31 g ai/ha; for pest or weed control at 62 g/ha: 62 g ai/ha; for pest or weed control at 125 g/ha: 125 g ai/ha
In short: as §1

[2] = tested on: giant foxtail (Setaria faberii); settings: Setaria faberi; for pest or weed control at 125 g/ha: 125 g ai/ha; for pest or weed control at 16 g/ha: 16 g ai/ha; for pest or weed control at 31 g/ha: 31 g ai/ha; for pest or weed control at 62 g/ha: 62 g ai/ha
In short: as §1

kochia (Kochia scoparia) = settings: Bassia scoparia; for pest or weed control at 16 g/ha: 16 g ai/ha; for pest or weed control at 31 g/ha: 31 g ai/ha; for pest or weed control at 62 g/ha: 62 g ai/ha; for pest or weed control at 125 g/ha: 125 g ai/ha
In short: as §1

[3] = tested on: eastern black nightshade (Solanum ptycanthum); settings: Solanum, pre-emergence, Preemergence, read-out: Plant response rating, Nightshade
In short: as §1

soybean (Glycine max) = settings: Glycine max; for plant injury at 16 g/ha: 16 g ai/ha; for plant injury at 62 g/ha: 62 g ai/ha; for plant injury at 125 g/ha: 125 g ai/ha
In short: as §1

[4] = tested on: johnsongrass (Sorghum halepense); settings: Sorghum halepense; for pest or weed control at 16 g/ha: 16 g ai/ha; for pest or weed control at 31 g/ha: 31 g ai/ha; for pest or weed control at 62 g/ha: 62 g ai/ha; for pest or weed control at 125 g/ha: 125 g ai/ha
In short: as §1

[5] = post-emergence, Postemergence, read-out: Plant response rating (scale of 0 to 100), Cocklebur
[6] = post-emergence, Postemergence, scale 0 to 100 (0 no effect, 100 complete control), read-out: Cocklebur plant response rating
[7] = pre-emergence, Preemergence, scale 0 to 100, 0 no effect, 100 complete control, read-out: Plant response rating, Cocklebur
[8] = post-emergence, Postemergence, scale 0 to 100 (0 no effect, 100 complete control), read-out: Foxtail, Giant plant response rating
[9] = post-emergence, Postemergence, read-out: Plant response rating (scale of 0 to 100), Foxtail, Giant
[10] = pre-emergence, Preemergence, scale 0 to 100, 0 no effect, 100 complete control, read-out: Plant response rating, Foxtail, Giant
[11] = post-emergence, Postemergence, read-out: Plant response rating (scale of 0 to 100), Kochia
[12] = post-emergence, Postemergence, scale 0 to 100 (0 no effect, 100 complete control), read-out: Kochia plant response rating
[13] = pre-emergence, Preemergence, scale 0 to 100, 0 no effect, 100 complete control, read-out: Plant response rating, Kochia
[14] = post-emergence, Postemergence, scale 0 to 100 (0 no effect, 100 complete control), read-out: Soybean plant response rating
[15] = pre-emergence, Preemergence, scale 0 to 100, 0 no effect, 100 complete control, read-out: Plant response rating, Soybean
[16] = post-emergence, Postemergence, read-out: Plant response rating (scale of 0 to 100), Johnsongrass
[17] = post-emergence, Postemergence, scale 0 to 100 (0 no effect, 100 complete control), read-out: Johnsongrass plant response rating
[18] = pre-emergence, Preemergence, scale 0 to 100, 0 no effect, 100 complete control, read-out: Plant response rating, Johnsongrass

With `COC(=O)c1nc(C2CC2)nc(N)c1F` [Compound 25] the Corn plant response rating (crop injury, 0 = no effect, 100 = complete kill) at 125 g/ha (corn (Zea mays)) was 0%, the pest or weed control at 16 g/ha [1, 5] was 70% and the pest or weed control at 31 g/ha [1, 5] was 85%. The pest or weed control at 62 g/ha [1, 6] was 90%, the pest or weed control at 125 g/ha [1, 6] was 90% and the pest or weed control at 16 g/ha [1, 7] was 0%. It also gave a pest or weed control at 31 g/ha [1, 7] of 20%, a pest or weed control at 62 g/ha [1, 7] of 60% and a pest or weed control at 125 g/ha ([1]; pre-emergence, Preemergence, scale 0 to 100, read-out: Plant response rating, Cocklebur) of 85%. The pest or weed control at 125 g/ha [2, 8] was 30%, the pest or weed control at 16 g/ha [2, 9] was 0% and the pest or weed control at 31 g/ha [2, 9] was 0%. For the same compound, the pest or weed control at 62 g/ha [2, 8] was 5%, the pest or weed control at 16 g/ha [2, 10] was 0% and the pest or weed control at 31 g/ha [2, 10] was 0%. It also gave a pest or weed control at 62 g/ha [2, 10] of 0%, a pest or weed control at 125 g/ha ([2]; pre-emergence, Preemergence, scale 0 to 100, read-out: Plant response rating, Foxtail, Giant) of 0% and a pest or weed control at 16 g/ha (kochia (Kochia scoparia); [11]) of 10%. It also gave a pest or weed control at 31 g/ha (kochia (Kochia scoparia); [11]) of 80%, a pest or weed control at 62 g/ha (kochia (Kochia scoparia); [12]) of 85% and a pest or weed control at 125 g/ha (kochia (Kochia scoparia); [12]) of 85%. The pest or weed control at 16 g/ha (kochia (Kochia scoparia); [13]) was 0%, the pest or weed control at 31 g/ha (kochia (Kochia scoparia); [13]) was 0% and the pest or weed control at 62 g/ha (kochia (Kochia scoparia); [13]) was 5%. The pest or weed control at 125 g/ha (kochia (Kochia scoparia); pre-emergence, Preemergence, scale 0 to 100, read-out: Plant response rating, Kochia) was 70%, the pest or weed control at 16 g/ha ([3]; 16 g ai/ha, scale 0 to 100, 0 no effect, 100 complete control) was 0% and the pest or weed control at 31 g/ha ([3]; 31 g ai/ha, scale 0 to 100, 0 no effect, 100 complete control) was 0%. It also gave a pest or weed control at 62 g/ha ([3]; 62 g ai/ha, scale 0 to 100, 0 no effect, 100 complete control) of 30%, a pest or weed control at 125 g/ha ([3]; 125 g ai/ha, scale 0 to 100) of 75% and a plant injury at 16 g/ha (soybean (Glycine max); post-emergence, Postemergence, read-out: Plant response rating (scale of 0 to 100), Soybean) of 40%. For the same compound, the plant injury at 31 g/ha (soybean (Glycine max); post-emergence, Postemergence, 31 g ai/ha, read-out: Plant response rating (scale of 0 to 100), Soybean) was 90%, the plant injury at 62 g/ha (soybean (Glycine max); [14]) was 90% and the plant injury at 125 g/ha (soybean (Glycine max); [14]) was 90%. The plant injury at 16 g/ha (soybean (Glycine max); [15]) was 30%, the plant injury at 62 g/ha (soybean (Glycine max); [15]) was 60% and the plant injury at 125 g/ha (soybean (Glycine max); pre-emergence, Preemergence, scale 0 to 100, read-out: Plant response rating, Soybean) was 65%. For the same compound, the pest or weed control at 16 g/ha [4, 16] was 0%, the pest or weed control at 31 g/ha [4, 16] was 10% and the pest or weed control at 62 g/ha [4, 17] was 10%. The pest or weed control at 125 g/ha [4, 17] was 20%, the pest or weed control at 16 g/ha [4, 18] was 0% and the pest or weed control at 31 g/ha [4, 18] was 0%. It also gave a pest or weed control at 62 g/ha [4, 18] of 0% and a pest or weed control at 125 g/ha ([4]; pre-emergence, Preemergence, scale 0 to 100, read-out: Plant response rating, Johnsongrass) of 0%.
